Series [1] is described as follows: Thermal and moisture stability on storage at room/ambient temperature. It is filed as physicochemical. The note with it: for moisture stability (in words): ambient temperature, transformation into a hydrate; for thermal stability (in words): stored at room temperature. As to the method: The 1,2-propanediol and DMSO solvates of etoricoxib obtained in the present disclosure have a relatively high desolvation temperature. The 1,2-propanediol and the DMSO have boiling points of […] and 189° C., respectively. […] Moreover, the host-guest intermolecular interaction energies in the crystal structure of etoricoxib 1,2-propanediol and DMSO solvates are −37.22 kJ/mol and −43.37 kJ/mol respectively, which are much higher than that (−30.53 kJ/mol) in hemihydrate crystal structure. It is difficult for water molecules to enter a unit cell of the 1,2-propanediol and DMSO solvates to replace the 1,2-propanediol and DMSO molecules at an ambient temperature. […] As a result, the 1,2-propanediol and DMSO solvates of etoricoxib obtained in the present disclosure both have prominent thermal stability and moisture stability.

A short description of series [2]: Solubility in aqueous solution. In kind it is physicochemical. As to conditions: 25° C. aqueous solution. The text has this: Therefore, the 1,2-propanediol and DMSO solvates of etoricoxib obtained in the present disclosure both effectively improve the solubility of etoricoxib in an aqueous solution.
Series [3] in a line: Crystal size and size distribution. In kind it is physicochemical. As to the method:
(§1) The 1,2-propanediol and DMSO solvates of etoricoxib obtained in the present disclosure are rod-like and bulk crystals, respectively, as shown in FIG. 10 and FIG. 11. The etoricoxib crystal form V in the prior art has a volume-average size of 16 μm and a repose angle of 44°; and the etoricoxib hemihydrate has a volume-average size of 19 μm and a repose angle of 48°. […] Therefore, the 1,2-propanediol and DMSO solvates of etoricoxib obtained in the present disclosure are perfect crystals with smooth surfaces, which are not easy to agglomerate and have prominent flowability.

Series [4] can be described thus: Onset temperature of desolvation in TG test (thermogravimetric analysis). It is filed as physicochemical. As to conditions: TGA, heating rate 10° C./min, 25° C. to 250° C., nitrogen.
Series [5] in a line: Repose angle (particle flowability). It is filed as physicochemical. As to the method:
as §1

The conditions of series [6]: prior-art hydrates, cited from earlier work.
Where [7] appears, read: listed as 1,2-propanediol solvate of etoricoxib.
Where [8] appears, read: listed as DMSO solvate of etoricoxib.
Where [9] appears, read: listed as etoricoxib hemihydrate.

The values below come from patent publication US11655231B2, “Etoricoxib solvates and preparation method thereof” (Tianjin University, priority 2020, dated 2023).

≈ marks a conversion by molar mass, not a printed value. Like-named read-outs stand apart in the source and are kept apart here.

On to `Cc1ccc(-c2ncc(Cl)cc2-c2ccc(S(C)(=O)=O)cc2)cn1` [1,2-propanediol solvate], for which, in series [1], the “moisture stability (in words)” value is “prominent moisture stability” and the “thermal stability (in words)” value was “excellent thermal stability”. Besides, in series [2] (setting [7]), the “solubility in aqueous solution” value was 527 µg/mL. For the same compound, in series [3], the primary crystal size is on record as 100 μm. For the same compound, the “variation coefficient of size distribution” value (“variation coefficient” below) in series [3] (setting [7]) is given as 23.6%. In addition, in series [4], the “Onset temperature of desolvation in TG test” value (“Onset temperature … in TG test” for short) was 94 ± 1 °C. For the same compound, the “Onset temperature … in TG test” value in series [4] (setting [7]) was found to be 94 °C.
Consider `Cc1ccc(-c2ncc(Cl)cc2-c2ccc(S(C)(=O)=O)cc2)cn1` [DMSO solvate], for which, in series [1], the “moisture stability (in words)” value is recorded as “prominent moisture stability”. Besides, the “thermal stability (in words)” value in series [1] was “excellent thermal stability”. Also, in series [2] (setting [8]), the “solubility in aqueous solution” value was found to be 1465 µg/mL. For the same compound, in series [3], the volume-average size is 120 μm. For the same compound, the “variation coefficient” value in series [3] (setting [8]) is listed as 19.7%. Further, the “Onset temperature … in TG test” value in series [4] came to 66 ± 1 °C; in series [4] (setting [8]), 66 °C.
For the compound `Cc1ccc(-c2ncc(Cl)cc2-c2ccc(S(C)(=O)=O)cc2)cn1` [EG solvate], the “Onset temperature … in TG test” value in series [4] is 96 ± 1 °C; in series [4] (listed as EG solvate of etoricoxib), 96 °C.
On to `Cc1ccc(-c2ncc(Cl)cc2-c2ccc(S(C)(=O)=O)cc2)cn1` [Formamide solvate], for which, in series [4] (listed as formamide solvate of etoricoxib), the “Onset temperature … in TG test” value worked out at 90 °C.
On to `Cc1ccc(-c2ncc(Cl)cc2-c2ccc(S(C)(=O)=O)cc2)cn1` [Hemihydrate, 5-chloro-6′-methyl-3-[4-(methylsulfonyl)phenyl]-2,3′-bipyridine], for which, in series [3], the “variation coefficient” value is 53.6%. In series [3] (setting [9]), this compound showed a volume-average size of 19 μm. In series [5] (setting [9]), this compound gave a repose angle of 48 °. Besides, the “onset temperature of dehydration” value in series [6] (listed as hemihydrate) was “lower than 56 °C”.
Take `Cc1ccc(-c2ncc(Cl)cc2-c2ccc(S(C)(=O)=O)cc2)cn1` [Methanol solvate]: the results for the “Onset temperature … in TG test” value in series [4] and in series [4] (listed as methanol solvate of etoricoxib) were 27 ± 1 °C and 27 °C, respectively.
As for `Cc1ccc(-c2ncc(Cl)cc2-c2ccc(S(C)(=O)=O)cc2)cn1` [NMP solvate], the figures for the “Onset temperature … in TG test” value in series [4] and in series [4] (listed as NMP solvate of etoricoxib) were 79 ± 1 °C and 79 °C, respectively.
For `Cc1ccc(-c2ncc(Cl)cc2-c2ccc(S(C)(=O)=O)cc2)cn1` [Sesquihydrate, 5-chloro-6′-methyl-3-[4-(methylsulfonyl)phenyl]-2,3′-bipyridine], the “onset temperature of dehydration” value in series [6] (listed as sesquihydrate) is “lower than 23 °C”.
For the compound `Cc1ccc(-c2ncc(Cl)cc2-c2ccc(S(C)(=O)=O)cc2)cn1` [etoricoxib crystal form V, 5-chloro-6′-methyl-3-[4-(methylsulfonyl)phenyl]-2,3′-bipyridine, reference compound], the “solubility in aqueous solution” value in series [2] is 307.9 µg/mL (≈ 858 µM). Moreover, in series [3], the “variation coefficient” value came to 57.2% and the volume-average size turned out to be 16 μm. The repose angle in series [5] is recorded as 44 °.
